# “Also recorded” adds a separate entry of the source.
# Tests used:
# U87-MG cells [1] = experiment: Sulforhodamine B (SRB) cell viability assay, U87-MG; format: cell-based; conditions: Homo sapiens, U-87 MG, 24 hours
# Excerpt: (§1) Sulforhodamine B (SRB) assay was used to evaluate RPMI 8226 cell viability in vitro. It is a widely used method to evaluate cell viability and cytotoxicity. This method relies on the property of SRB, which binds stoichiometrically to proteins under mild acidic conditions. Thus, the amount of bound dye can be used as measure of cell proliferation.
# (§2) Human RPMI 8226 and U87-MG cells were growth in culture medium (DMEM low glucose for U87-MG and RPMI 1640 for RPMI 8226), supplemented with 10% fetal bovine serum, 1% L-glutamine, 1% penicillin and streptomycin. Cells were maintained in a humidified incubator at 37° C. and 5% CO2. For SRB assay, 1×10^4/well cells were seeded in a 96-well plate and were treated with increasing concentrations of the compounds (1-20 μM). After 24 hours, cells were fixed with 10% trichloroacetic acid and were stained with SRB solution. Excess of dye was removed by washing with 1% acetic acid. The protein-bound dye was then dissolved in 10 mM Tris base solution and absorbance was measured at 510 nm using a microplate reader.
# (§3) Statistical analysis of the data obtained was performed using the one-way analysis of variance (ANOVA) and the Dunnet's post-hoc test. Values of p<0.01 (**) were considered statistically significant.
# (§4) The results, expressed as the mean±standard deviation, represents the percentage of viable cells compared to untreated control (arbitrarily set to 100%).
# (§5) FIG. 7 represents the results obtained in U87-MG cells after treatment with compound 26 (A), 27 (B), 28 (C) 29 (D) and 30 (E). FIG. 8 represents the results obtained for RPMI 8226 cells after treatment with compound 26 (A), 27 (B), 28 (C) 29 (D) and 30 (E). Cells were treated for 24 hours with increasing concentrations of compounds (1, 5, 10 and 20 μM).
# RPMI 8226 cells [2] = experiment: Sulforhodamine B (SRB) cell viability assay, RPMI 8226; format: cell-based, Human; conditions: RPMI 8226, SRB assay, 24 hours; for IC20 / IC50: Homo sapiens
# Excerpt: as §1, §2, §3, §4, §5
# [3] = system: dorsal root ganglia (DRG); experiment: NGF-induced neurite outgrowth of DRG organotypic cultures (neurotoxic effect); format: cell-based, embryonic Sprague-Dawley rats; conditions: for neurotoxicity in vitro (result in words): concentrations = IC20, IC50, IC80 of U87-MG SRB assay, neurotoxic if neurites length less than 50% of control
# Experimental: Evaluation of NGF-induced neurite outgrowths was performed on dorsal root ganglia (DRG) of 15-day-old embryonic Sprague-Dawley rats. Briefly, DRG were aseptically collected and plated onto collagen coated dishes. DRG were cultured in AN2 medium supplemented with 5 ng/mL NGF in a 5% CO2 humidified incubator at 37° C. DRG were treated after 2 hours with increasing concentrations of compounds, corresponding to IC20, IC50 and IC80 in U87-MG SRB assay. Micrographs of DRG were taken after 24 and 72 hours of treatment and neurite elongation was manually measured using ImageJ software.
# (§6) Statistical analysis of the data obtained was performed using the ANOVA and the Dunnet's post-hoc test. Values of p<0.01 (**) were considered statistically significant.
# The results, expressed as the mean±standard deviation, represents the percentage of neurite outgrowth compared to untreated control (arbitrarily set to 100%).
# According to this method of in vitro neurotoxicity evaluation, a compound can be considered neurotoxic if neurites length is less than 50% of the control.
# U87-MG cells [4] = experiment: Boyden chamber cell invasion, U87-MG; format: cell-based, Human; conditions: treated at IC20 of SRB assay, 16 hours, FIG. 10A
# Experimental: (§7) Cell invasion is evaluated by Boyden Chamber. In Boyden chamber, cells attracted by a chemoattractant pass through a porous membrane coated with gelatine. This in vitro assay is indicative of the ability of cells to cross an extracellular substrate and invade surrounding tissues. U87-MG and RPMI cells were resuspended in FBS-free medium, with or without treatments. IC20 obtained in SRB assay was used as compound treatment concentration, in order to not affect the invasion results with a too high mortality. 5×10^3 cells/well were seeded in the upper compartment of the Boyden chamber. In the lower compartment a complete medium supplemented with 10% FBS was placed. FBS was used as chemoattractant. Between the two compartments, a gelatine coated polycarbonate membrane with 8 μm pores was placed. The Boyden chamber, thus set up, was placed at 37° C. in an incubator for 24 hours (RPMI 8226 cells) or for 16 hours (U87-MG cells). After incubation membrane was removed and cells on the lower surface of the membrane were fixed and stained with Diffquick staining kit. Micrographs were taken and cells were counted using ImageJ software.
# as §6
# (§8) The results, expressed as the mean±standard deviation, represents the percentage of cells that are able to pass through the membrane compared to untreated control (arbitrarily set to 100%).
# Proteasome [5] = experiment: Proteasome activity (7-Amido-4-Methylcoumarin fluorescent probe) in RPMI 8226 cells; format: cell-based, Human; conditions: RPMI 8226, treated at IC50 of SRB assay, 24 hours
# Experimental: (§9) Proteasome is a cellular complex responsible for the degradation of a high amount of regulatory, misfolded or damaged intracellular proteins. It is considered an important target for anticancer therapy. Proteasome activity was evaluated by 7-Amido-4-Methylcoumarin fluorescent probe. U87-MG and RPMI 8226 cells were cultured in 6 well-plates at 25×10^4 cells/well density and were treated with IC50 concentration of each compound (calculated in SRB assay). After 24 hours of treatment, cells were collected and total protein extracts were obtained. Lysis buffer (5 mM Hepes pH 7.5, 150 mM NaCl, 10% glycerol, 1% Triton X100, 1.5 mM MgCl2, 5 mM EGTA) was […] with proteases and phosphatases inhibitors. Protein content was quantified using Bradford method. 40 μg of proteins were mixed with proteasome buffer (250 mM Hepes pH 7.5, 5 mM EDTA, 0.5% NP-40, 0.01% SDS) and 2.2 mM 7-Amido-4-Methylcoumarin. After 2 hours of incubation at 37° C., fluorescence was quantified in a microplate reader (excitation 380 nm, emission 460 nm). Statistical analysis of the data obtained was performed using the ANOVA and the Dunnet's post-hoc test. Values of p<0.01 (**) were considered statistically significant. The results, expressed as the mean±standard deviation, represents the percentage of proteasome activity compared to untreated control (arbitrarily set to 100%).
# RPMI 8226 cells [6] = experiment: Boyden chamber cell invasion, RPMI 8226; format: cell-based, Human; conditions: RPMI 8226, treated at IC20 of SRB assay, 24 hours; for cell invasion compared to untreated control: control = 100%; for cell invasion (result in words): FIG. 10B
# Experimental: as §7, §6, §8
# Proteasome [7] = experiment: Proteasome activity (7-Amido-4-Methylcoumarin fluorescent probe) in U87-MG cells; format: cell-based, Human; conditions: treated at IC50 of SRB assay, 24 hours; for proteasome inhibition: FIG. 11A
# Experimental: as §9
# U87-MG cells [8] = experiment: Scratch wound healing cell migration assay; format: cell-based, Human; conditions: 1-10 μM, 24 hours, FIG. 9
# Experimental: FIG. 9 represent cell migration assays on U87-MG cells.
# The scratch wound healing assay evaluates the ability of cells to close a manually created gap on the cell monolayer in vitro. This assay is indicative of cell motility and the ability of cells to propagate locally.
# Cells were seeded in 6-well plates and were incubated until reaching confluence. At this point, using a plastic tip, a scratch was manually created on the surface of the cell monolayer. Culture medium was then replaced with fresh medium with or without treatments. Cells were treated with increasing concentrations of the compounds (1-10 μM). Micrographs were taken immediately after the scratch (t0) and 24 hours later (t24). The area of the scratch was measured using ImageJ software and cell migration area was calculated by subtracting the t24 area from the t0 area.
# as §3
# The results, expressed as the mean±standard deviation, represents the percentage of the cell migration area compared to untreated control (arbitrarily set to 100%).
Structure (SMILES),IC50 (U87-MG cells [1]) [µM],IC20 (RPMI 8226 cells [2]) [µM],IC50 (RPMI 8226 cells [2]) [µM],IC80 (RPMI 8226 cells [2]) [µM],"concentration up to which not neurotoxic ([3]; rat DRG neurite outgrowth, 24 and 72 hours)","neurotoxicity in vitro (result in words) ([3]; rat DRG, 24 and 72 hours)",cell invasion (result in words) (U87-MG cells [4]),proteasome inhibition (result in words) (Proteasome [5]),cell invasion compared to untreated control (RPMI 8226 cells [6]) [%],proteasome inhibition (result in words) (Proteasome [7]),proteasome inhibition (Proteasome [7]) [%],cell migration (result in words) (U87-MG cells [8]),cell invasion (result in words) (RPMI 8226 cells [6]),"neurite length, percentage of untreated control ([3]; rat DRG, all evaluated concentrations)"
"C/C(=C\CN1CCN(C(=O)NC2CCCC2)CC1)c1ccc2ccccc2c1 [Compound 26, (E)-N-cyclopentyl-4-(3-(naphthalen-2-yl)but-2-en-1-yl)piperazine-1-carboxamide]",13.3 ± 0.6,22.6 ± 2,7.9 ± 0.7,3.9 ± 1.2,up to 13 μM,at the highest concentration evaluated it was found to be neurotoxic,weak effect against cell invasion,able of inhibiting the proteasome activity,~80,able of inhibiting the proteasome activity,~50,weak ability to reduce migration,,
"C/C(=C\CN1CCN(C(=O)NC2CCCCC2)CC1)c1ccc2ccccc2c1 [Compound 27, (E)-N-cyclohexyl-4-(3-(naphthalen-2-yl)but-2-en-1-yl)piperazine-1-carboxamide]",10 ± 0.5,9.5 ± 3.7,6.4 ± 0.3,4.2 ± 2.1,,not neurotoxic at all evaluated concentrations and time points,weak effect against cell invasion,not an inhibitory effect,~80,,,strong cell migration inhibitors,,
"C/C(=C\CN1CCN(C(=O)Nc2ccc(C)cc2)CC1)c1ccc2ccccc2c1 [Compound 28, (E)-4-(3-(naphthalen-2-yl)but-2-en-1-yl)-N-(p-tolyl)piperazine-1-carboxamide]",10.8 ± 1.8,7.1 ± 0.6,3.7 ± 0.6,1.9 ± 0.5,,not neurotoxic at all evaluated concentrations and time points,very effective in reducing cell invasion; also recorded: significantly able of inhibiting the invasion,able of inhibiting the proteasome activity,,able of inhibiting the proteasome activity,,strong cell migration inhibitors,"statistically significant, however lower than the one obtained in U87-MG cells",
"COc1ccc2cc(/C(C)=C/CN3CCN(C(=O)Nc4ccc(C(F)(F)F)cc4)CC3)ccc2c1 [Compound 29, (E)-4-(3-(6-methoxynaphthalen-2-yl)but-2-en-1-yl)-N-(4-(trifluoromethyl)phenyl)piperazine-1-carboxamide]",7.1 ± 0.1,8.1 ± 0.3,4.8 ± 0.1,2.9 ± 0.1,,not neurotoxic at all evaluated concentrations and time points,"reduced cell invasion, but it was less effective than compound 28; also recorded: significantly able of inhibiting the invasion",only a weak inhibitory effect; also recorded: only weak inhibitory activity,,only a weak inhibitory effect; also recorded: only weak inhibitory activity,~50,strong cell migration inhibitors,"statistically significant, however lower than the one obtained in U87-MG cells",
"COc1ccc2cc(/C(C)=C/CN3CCN(C(=O)Nc4c(F)cccc4F)CC3)ccc2c1 [Compound 30, (E)-N-(2,6-difluorophenyl)-4-(3-(6-methoxynaphthalen-2-yl)but-2-en-1-yl)piperazine-1-carboxamide]",12.2 ± 0.3,7.3 ± 0.1,4.5 ± 0.2,2.9 ± 0.1,,not neurotoxic in vitro; also recorded: not neurotoxic at all evaluated concentrations,not effective,only a weak inhibitory effect,~80,,,strong cell migration inhibitors,,higher than 50%
